Data taken from the supplement of paper PMC10307832.

Key:
Assay in all cases: relative viability (nuclei count vs DMSO), 5 days (fraction); higher = more cells survive
[1] = compound: O=C1NC(=O)[C@@H](c2cn3c4c(cccc24)CCC3)[C@@H]1c1c[nH]c2ccccc12 [Tivantinib] + CC(C)C[C@H](NC(=O)[C@H](Cc1ccccc1)NC(=O)c1cnccn1)B(O)O [Bortezomib] (partner 0.002 µM)
Method in brief: (§1)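 The day after seeding in 1536-well plates, lung cancer cell lines were treated by pin tool with a single drug, or with a fixed anchor-drug dose together with five library-drug doses (not always all listed) in √10 steps. After 5 days, a combined fix-and-stain solution (final 0.05% Triton X-100, 1% formaldehyde, 1 ug/ml Hoechst) was added. Nuclei counted on 4× images gave relative viability as treated counts over vehicle counts, reported as the median of duplicate plates.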

[2] = compound: O=C1NC(=O)[C@@H](c2cn3c4c(cccc24)CCC3)[C@@H]1c1c[nH]c2ccccc12 [Tivantinib] + O=C(c1cc(Cc2n[nH]c(=O)c3ccccc23)ccc1F)N1CCN(C(=O)C2CC2)CC1 [Olaparib] (partner 8 µM)
Method in brief: as §1

[3] = compound: O=C1NC(=O)[C@@H](c2cn3c4c(cccc24)CCC3)[C@@H]1c1c[nH]c2ccccc12 [Tivantinib] + C[C@@H](Oc1cc(-c2cnn(C3CCNCC3)c2)cnc1N)c1c(Cl)ccc(F)c1Cl [Crizotinib] (partner 1 µM)
Method in brief: as §1

[4] = compound: O=C1NC(=O)[C@@H](c2cn3c4c(cccc24)CCC3)[C@@H]1c1c[nH]c2ccccc12 [Tivantinib] + Nc1ncn([C@H]2C[C@H](O)[C@@H](CO)O2)c(=O)n1 [Decitabine] (partner 2 µM)
Method in brief: as §1

Cell Line: UMC-11
- relative viability ([1]; first compound 0.01 µM): 0.678
- relative viability ([1]; first compound 0.03162 µM): 0.734
- relative viability ([1]; first compound 0.1 µM): 0.551
- relative viability ([1]; first compound 0.3162 µM): 0.969
- relative viability ([2]; first compound 0.01 µM): 0.354
- relative viability ([2]; first compound 0.03162 µM): 0.341
- relative viability ([2]; first compound 0.1 µM): 0.365
- relative viability ([2]; first compound 0.3162 µM): 0.362
- relative viability ([3]; first compound 0.01 µM): 0.662
- relative viability ([3]; first compound 0.03162 µM): 0.601
- relative viability ([3]; first compound 0.1 µM): 0.637
- relative viability ([3]; first compound 0.3162 µM): 0.531
- relative viability ([4]; first compound 0.01 µM): 0.574
- relative viability ([4]; first compound 0.03162 µM): 0.532
- relative viability ([4]; first compound 0.1 µM): 0.527
- relative viability ([4]; first compound 0.3162 µM): 0.434
